Assay results from paper PMC5712521, “Dendrogenin A drives LXR to trigger lethal autophagy in cancers” (Nature Communications, 2017).

Tested on: primary AML cells
Experiment: Immunoblot densitometry in primary AML cells
Type: cell-based, human
Conditions: 5 µM DDA, 24 h
Protocol: Immunoblotting was carried out as described previously. Proteins were separated on SDS-PAGE gels, electro-transferred onto polyvinylidene difluoride membranes and incubated overnight at 4 °C with the following antibodies: anti-Atg3, anti-Atg5 (D1G9), anti-Atg7 (D12B11), anti-Beclin (D40C5), anti-caspase-3 (Cell Signaling), anti-Bcl-2 (Millipore), anti-Bax (Millipore), anti-LC3 (Sigma-Aldrich), anti-LXRα (SantaCruz), anti-LXRβ (SantaCruz), anti-Nur77 (Active motif), anti-NOR1 (R&D systems), anti-PARP (Cell Signaling), anti-Vps34 (Cell Signaling), or anti-Actin (Millipore). For visualization, an ECL plus kit (Amersham Biosciences) was used, and chemiluminescence was measured by autoradiography (Supplementary Fig. 9). Specific bands were quantified with ImageQuant software.
AML patient and normal bone marrow samples were obtained from patients in the Hematology Department of Toulouse (France), after obtaining consent in accordance with the Declaration of Helsinki[67], and according to institutional guidelines. Samples were stored at the INSERM-1037 HIMIP collection (no. DC-2008-307-CPTP1 HIMIP). For some experiments, fresh leukemic blasts recovered at diagnosis were immediately treated with DDA. In other cases, frozen cells were thawed in IMDM medium with 20% FBS. Patient characteristics are shown in supplementary data 1. Normal bone marrow cells were subjected to Ficoll-Paque density gradient separation to isolate mononuclear cells, followed by CD34+ cell separation using high-gradient magnetic-activated cell sorting, according to the manufacturer’s manual. The in vivo assays were performed with cryopreserved cells. […]
All data or images are
representative of 3 independent experiments.

CC(C)CCC[C@@H](C)[C@H]1CC[C@H]2[C@@H]3C[C@@H](NCCc4cnc[nH]4)[C@@]4(O)C[C@@H](O)CC[C@]4(C)[C@H]3CC[C@]12C [DDA, Dendrogenin A]
LC3-II protein, densitometry relative to vehicle (AML#4): 3.4 | LXRβ protein, densitometry relative to vehicle (AML#4): 0.9 | NOR1 protein, densitometry relative to vehicle (AML#4): 2 | Nur77 protein, densitometry relative to vehicle (AML#4): 1.4 | LC3-II protein, densitometry relative to vehicle (AML#5): 3 | LXRβ protein, densitometry relative to vehicle (AML#5): 0.7 | NOR1 protein, densitometry relative to vehicle (AML#5): 2.2 | Nur77 protein, densitometry relative to vehicle (AML#5): 1.7
